Assay results published in PMC5469811, “Identification of GXXXXG motif in Chrysophsin-1 and its implication in the design of analogs with cell-selective antimicrobial and anti-endotoxin activities” (Scientific Reports, 2017).
In brackets after ≈: the same amount, converted by molar mass. Residues, ends and D or L forms follow the SMILES beside them.

Tests used:
[1] = system: Escherichia coli (ATCC 25922); assay: microbe, parasite or virus in culture; format: cell-based; details: ATCC 25922; read-out: Minimum inhibitory concentration (MIC)
Description: (§1) Antibacterial assay against various Gram-positive and Gram-negative strains of bacteria was performed by the serial two-fold dilution method according to the previously reported procedure, [36]. The antibacterial assays were repeated thrice and the averages of these MIC values were reported.

[2] = system: Pseudomonas aeruginosa (ATCC BAA-427); assay: microbe, parasite or virus in culture; format: cell-based; details: ATCC BAA-427; read-out: Minimum inhibitory concentration (MIC)
Description: as §1

[3] = system: Staphylococcus aureus (ATCC 25923); assay: microbe, parasite or virus in culture; format: cell-based; details: ATCC 25923; read-out: Minimum inhibitory concentration (MIC)
Description: as §1

[4] = system: Klebsiella pneumoniae (ATCC 27736); assay: microbe, parasite or virus in culture; format: cell-based; details: ATCC 27736; read-out: Minimum inhibitory concentration (MIC)
Description: as §1

[5] = system: Staphylococcus aureus (ATCC 33592) Methicillin resistant Genatmicin resistant; assay: microbe, parasite or virus in culture; format: cell-based; details: ATCC 33592; read-out: Minimum inhibitory concentration (MIC)
Description: as §1

[6] = system: Staphylococcus aureus (ATCC 700698 MRSA); assay: microbe, parasite or virus in culture; format: cell-based; details: ATCC 700698; read-out: Minimum inhibitory concentration (MIC)
Description: as §1

[7] = system: Staphylococcus aureus (ATCC 700699 MRSA); assay: microbe, parasite or virus in culture; format: cell-based; details: ATCC 700699; read-out: Minimum inhibitory concentration (MIC)
Description: as §1

[8] = system: Staphylococcus aureus (ATCC 29213); assay: microbe, parasite or virus in culture; format: cell-based; details: ATCC 29213; read-out: Minimum inhibitory concentration (MIC)
Description: as §1

[9] = system: Bacillus subtilis (ATCC 6633); assay: microbe, parasite or virus in culture; format: cell-based; details: ATCC 6633; read-out: Minimum inhibitory concentration (MIC)
Description: as §1

[10] = system: Escherichia coli (ATCC 9637); assay: microbe, parasite or virus in culture; format: cell-based; details: ATCC 9637; read-out: Minimum inhibitory concentration (MIC)
Description: as §1

[11] = system: Staphylococcus aureus (BAA-44)MDR; assay: microbe, parasite or virus in culture; format: cell-based; details: BAA-44; read-out: Minimum inhibitory concentration (MIC)
Description: as §1

[12] = system: Cryptococcus neoformans; assay: microbe, parasite or virus in culture; format: cell-based; details: 72 h; read-out: Minimum inhibitory concentration (MIC)
Description: (§2) The anti- fungal activity of peptides was performed according to the standard micro broth dilution technique as per NCCLS guidelines. These plates were incubated in a moist chamber at 35 °C, and an absorbance at 492 nm was recorded on a VersaMax microplate reader after 48 h for C. albicans ATCC 10231 and C. parapsilosis ATCC 22019 and 72 h for C. neoformans.

[13] = system: Candida parapsilosis (ATCC 22019); assay: microbe, parasite or virus in culture; format: cell-based; details: ATCC 22019, 48 h; read-out: Minimum inhibitory concentration (MIC)
Description: as §2

[14] = system: Candida albicans (ATCC 10231); assay: microbe, parasite or virus in culture; format: cell-based; details: ATCC 10231, 48 h; read-out: Minimum inhibitory concentration (MIC)
Description: as §2

[15] = system: E. coli (ATCC 25922); format: cell-based, Escherichia coli; details: ATCC 25922, 1 h
Description: (§3) E. coli ATCC25922 was grown to 10^6 CFU/ml in fresh MH broth with various divalent and monovalent salts at their physiological concentrations. Serial dilutions of chrysophsin-1 and its variants prepared with the same MH broth were added to the E. coli ATCC 25922 suspensions. The bacteria were incubated at 37 °C in a shaking incubator for 18 h and the MIC values of individual peptides against E. coli ATCC 25922 were determined. Thermal tolerance of Chrysophsin-1 and its variants was checked by incubating the peptides at 4 °C, 60 °C and 90 °C for 1 h prior to MIC determination. The antibacterial activity in presence of serum was carried out by adding a final concentration of 10% fetal bovine serum in the assay diluents containing 0.4% BSA, 0.02% glacial acetic acid. The subsequent steps in both the experiments were consistent with the MIC determination method.

[16] = system: E. coli ATCC 25922; format: cell-based, Escherichia coli; details: ATCC 25922, 18 h
Description: as §3

[17] = system: E. coli ATCC 25922; assay: Synergy with conventional antibiotics, checkerboard titration; format: cell-based, Escherichia coli
Description: The checkerboard titration method was followed to check the synergy of peptides with other antibiotics. First, 2-fold serial dilutions of the antibiotics and antimicrobial peptides were prepared. Subsequently, 50 μl each of different concentrations of antibiotics and of antimicrobial peptides was mixed and added into 100 μl of log phase bacteria culture in a 96-well plate. The plates were then incubated at 37 °C for 24 h. The fractional inhibitory concentration (FIC) index (FICI) was calculated as follows[39]: FICI=(MICofdrugAincombination)/(MICofdrugAalone)+(MICofdrugBincombination)/(MICofdrugB): FICI < 0.5 is considered to indicate synergy; 0.5 < FICI < 1.0 is considered additive; 1.0 < FICI < 4.0 is considered indifferent; and FICI > 4.0 is considered antagonism.

[18] = system: S. aureus (ATCC 25923); format: cell-based, Staphylococcus aureus; details: ATCC 25923, 1 h
Description: as §3

[19] = system: Sporothrix schenckii (Patient isolates); assay: microbe, parasite or virus in culture; format: cell-based; details: 48 h; read-out: Minimum inhibitory concentration (MIC)

CC[C@H](C)[C@H](NC(=O)[C@H](C)NC(=O)CNC(=O)[C@H](CCCCN)NC(=O)[C@@H](NC(=O)[C@H](CC(C)C)NC(=O)[C@H](Cc1c[nH]c2ccccc12)NC(=O)CNC(=O)[C@H](Cc1ccccc1)NC(=O)[C@@H](N)Cc1ccccc1)[C@@H](C)CC)C(=O)N[C@@H](Cc1c[nH]cn1)C(=O)N[C@@H](C)C(=O)N1CCC[C@H]1C(=O)N[C@@H](CCCCN)C(=O)N[C@@H](C)C(=O)N[C@H](C(=O)N[C@@H](Cc1c[nH]cn1)C(=O)N1CCC[C@H]1C(=O)N[C@@H](CC(C)C)C(=O)N[C@H](C(=O)N[C@@H](Cc1c[nH]cn1)C(=O)N[C@@H](CCCNC(=N)N)C(=O)N[C@@H](CCCNC(=N)N)C(=O)N[C@@H](CCCNC(=N)N)C(=O)N[C@@H](Cc1c[nH]cn1)C(N)=O)[C@@H](C)CC)[C@@H](C)CC [G13,18P-Chr-1] (H-FFGWLIKGAIHAPKAIHPLIHRRRH-NH2; N-terminus and C-terminus assumed)
MIC [1]: 4 µM (≈ 11.9 µg/mL) | MIC [2]: 13.6 µM (≈ 40.4 µg/mL) | MIC [3]: 3 µM (≈ 8.91 µg/mL) | MIC [4]: 27.2 µM (≈ 80.8 µg/mL) | MIC [5]: 1.6 µM (≈ 4.75 µg/mL) | MIC [6]: 3 µM (≈ 8.91 µg/mL) | MIC [7]: 3 µM (≈ 8.91 µg/mL) | MIC [8]: 3 µM (≈ 8.91 µg/mL) | MIC [9]: 3 µM (≈ 8.91 µg/mL) | MIC [10]: 6.8 µM (≈ 20.2 µg/mL) | MIC [11]: 3 µM (≈ 8.91 µg/mL) | MIC [12]: >30 µM | MIC [13]: >30 µM | MIC [14]: >30 µM | Antibacterial activity (MIC) after incubating peptide at 4 °C [15]: 4 µM | Antibacterial activity (MIC) after incubating peptide at 60 °C [15]: 14 µM | Antibacterial activity (MIC) after incubating peptide at 90 °C [15]: 17.2 µM | Antibacterial activity (MIC) in the presence of 10% FBS [16]: >33 µM | Antibacterial activity (MIC) in the presence of FeCl3 [16]: 26 µM | Antibacterial activity (MIC) in the presence of KCl [16]: 6 µM | Antibacterial activity (MIC) in the presence of MgCl2 [16]: 20 µM | Antibacterial activity (MIC) in the presence of NH4Cl [16]: 5 µM | Antibacterial activity (MIC) in the presence of NaCl [16]: 20 µM | Antibacterial activity (MIC) in the presence of ZnCl2 [16]: 12 µM | interaction of peptide with chloramphenicol (by FICI) [17]: additivity | Antibacterial activity (MIC) after incubating peptide at 4 °C [18]: 3 µM | Antibacterial activity (MIC) after incubating peptide at 60 °C [18]: >33 µM | Antibacterial activity (MIC) after incubating peptide at 90 °C [18]: >33 µM | MIC [19]: >30 µM
